In patent US5290948A, “Process for producing polyhydroxylated piperidines and pyrrolidines and compounds thereof” (McNeilab, Inc., priority 1990, dated 1994):
Where a name gives a salt, the structure may show the parent alone.

Tests used:
Maltase = assay: Inhibition of maltase (α-glycosidase, maltose-cleaving activity); assay type: biochemical, rabbit; settings: for Inh. of Maltase: at 100 µM (Table 1 head)
Experimental: […] In addition compounds 1 and 2 were screened at a dose of 1 mM. These compounds are described in Examples 6, 81 10, 11 and 12. […] Compounds 1, 2, 6 and 12 are novel compounds having glucitol stereochemistry. Compound 11 is likewise novel and it has the iditol stereochemistry.
(§1) The inhibition of maltase (sucrase) tests was carried out as recited hereinafter. Partially purified α-glycosidase was isolated from the rabbit's small intestine as described in the literature (B. L. Rhinehart et al. Life Sci. 1987, 41, 2325). The α-glycosidase activity was measured using […] as substrates. β-Glycosidase from almonds was obtained from Sigma (St. Louis), and β-glycosidase activity was measured using lactose as a substrate. The incubation mixture (200 μL) consisted of substrate (100 mM), enzyme, 100 mM NaCl, 0.1 mM Na2 EDTA and either 10 mM MOPS (for pH 7), 10 mM maleic acid (for pH 6), or 10 Mm acetate (for pH 5) as buffer (adjusted to their respective pH with NaOH). Compounds dissolved in dimethylsulfoxide were added (final concentration of dimethylsulfoxide in the assay was 1%). The assay was performed at 37 deg C. for 30 minutes and arrested by incubation for 3 min at 85 deg C. After centrifugation for 2 min at 10,000 g, the supernatant was collected and processed for glucose determination. Glucose was measured with the hexokinase method (kit obtained from Boehringer Mannheim) on an EPOS 5060 EPPENDORF autoanalyser.

β-Glycosidase = assay: Inhibition of lactose activity (β-glycosidase); assay type: biochemical, almonds
Experimental: as §1

HIV-1 = assay: Anti-HIV-1 activity in MT-4 cells; assay type: cell-based; settings: for HIV1/HIV2 Act. (HIV1): Table 1, MT-4 cells, viable cells after five days; for inhibited the growth of HIV-1: at high concentrations
Experimental: Anti-HIV-1 activity was tested in MT-4 cells as described previously (Pauwels et al. J. Virol Methods 1987, 11, 171). The cells were either infected with HIV-1 or mock infected and incubated in the presence of the test compounds. The number of viable cells was then determined after five days (Pauwels et al. J. Virol Methods 1988, 20, 309).

glycosidase = assay: Glycosidase inhibition, overall statement; assay type: biochemical
Experimental: Compounds 6, 11 and 12 in Table 1 were screened at a single dose (100 micromolar) against sucrase and maltase, two glycosidase enzymes. In addition compounds 1 and 2 were screened at a dose of 1 mM. These compounds are described in Examples 6, 81 10, 11 and 12. […] Compounds 1, 2, 6 and 12 are novel compounds having glucitol stereochemistry. Compound 11 is likewise novel and it has the iditol stereochemistry.
as §1

Sucrase = target: T1, Sucrase (Oryctolagus cuniculus, UniProt P07768); assay: Inhibition of sucrase (α-glycosidase); assay type: biochemical, rabbit; settings: at 100 mM (Table 1 head)
T1 construct: Partially purified α-glycosidase was isolated from the rabbit's small intestine; from tissue; host or cells: rabbit small intestine, partially purified
T1 sequence (P07768 1008-1827 limits assumed): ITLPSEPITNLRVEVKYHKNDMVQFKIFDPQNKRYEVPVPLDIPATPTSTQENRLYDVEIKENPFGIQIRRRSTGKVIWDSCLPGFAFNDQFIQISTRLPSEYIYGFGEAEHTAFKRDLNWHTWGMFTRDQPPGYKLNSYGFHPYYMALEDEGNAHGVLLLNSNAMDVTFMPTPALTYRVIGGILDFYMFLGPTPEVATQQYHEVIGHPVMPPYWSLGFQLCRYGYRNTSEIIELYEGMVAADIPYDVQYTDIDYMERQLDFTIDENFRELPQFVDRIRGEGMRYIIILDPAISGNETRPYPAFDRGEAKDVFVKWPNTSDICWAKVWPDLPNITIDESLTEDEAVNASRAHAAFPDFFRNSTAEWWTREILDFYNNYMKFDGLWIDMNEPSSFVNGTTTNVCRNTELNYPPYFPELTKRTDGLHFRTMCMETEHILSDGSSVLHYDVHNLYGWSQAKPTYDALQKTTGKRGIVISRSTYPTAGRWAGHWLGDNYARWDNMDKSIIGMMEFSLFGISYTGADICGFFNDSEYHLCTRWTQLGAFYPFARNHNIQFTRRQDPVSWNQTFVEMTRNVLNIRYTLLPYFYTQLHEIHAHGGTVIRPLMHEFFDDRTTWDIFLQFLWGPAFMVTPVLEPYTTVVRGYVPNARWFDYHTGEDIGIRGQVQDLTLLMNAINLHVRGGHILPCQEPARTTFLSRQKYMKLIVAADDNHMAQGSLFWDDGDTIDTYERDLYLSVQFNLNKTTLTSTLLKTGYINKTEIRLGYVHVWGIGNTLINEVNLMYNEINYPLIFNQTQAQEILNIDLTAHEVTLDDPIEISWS
T1 sequence (P07768 2-1007 partner limits assumed): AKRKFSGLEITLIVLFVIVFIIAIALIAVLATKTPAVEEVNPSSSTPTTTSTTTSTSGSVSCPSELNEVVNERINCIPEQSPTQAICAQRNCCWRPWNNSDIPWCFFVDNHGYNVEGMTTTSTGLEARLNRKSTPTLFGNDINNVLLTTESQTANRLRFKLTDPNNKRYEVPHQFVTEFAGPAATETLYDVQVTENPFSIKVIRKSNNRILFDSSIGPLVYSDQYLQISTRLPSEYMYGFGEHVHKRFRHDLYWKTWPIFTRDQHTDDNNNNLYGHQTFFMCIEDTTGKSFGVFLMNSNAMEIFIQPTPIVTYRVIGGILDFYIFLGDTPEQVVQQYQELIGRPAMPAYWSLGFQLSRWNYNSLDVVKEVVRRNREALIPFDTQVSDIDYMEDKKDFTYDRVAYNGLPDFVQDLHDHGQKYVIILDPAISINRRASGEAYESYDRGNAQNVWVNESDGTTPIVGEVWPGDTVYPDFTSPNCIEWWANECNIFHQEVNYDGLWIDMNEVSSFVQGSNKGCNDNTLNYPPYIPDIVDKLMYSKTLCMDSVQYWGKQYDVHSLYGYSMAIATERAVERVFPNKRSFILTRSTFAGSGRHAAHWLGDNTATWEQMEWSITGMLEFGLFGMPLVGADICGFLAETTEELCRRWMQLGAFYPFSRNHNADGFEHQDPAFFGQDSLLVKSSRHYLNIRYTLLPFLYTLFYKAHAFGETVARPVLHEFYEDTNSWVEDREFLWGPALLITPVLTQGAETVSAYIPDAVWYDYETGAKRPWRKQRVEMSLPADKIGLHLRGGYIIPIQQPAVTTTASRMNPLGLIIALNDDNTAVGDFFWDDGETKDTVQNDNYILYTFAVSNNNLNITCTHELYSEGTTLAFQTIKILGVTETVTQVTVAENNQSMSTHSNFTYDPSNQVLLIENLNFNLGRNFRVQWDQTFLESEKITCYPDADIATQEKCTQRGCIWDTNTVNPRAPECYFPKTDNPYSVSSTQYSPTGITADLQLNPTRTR
Experimental: […] In addition compounds 1 and 2 were screened at a dose of 1 mM. These compounds are described in Examples 6, 81 10, 11 and 12.
as §1

HIV2 = assay: Anti-HIV-2 activity; assay type: cell-based; settings: Table 1

Row | Compound | Inh. of Maltase (Maltase) | HIV1/HIV2 Act. (HIV1) (HIV-1) | glycosidase inhibition (in words) (glycosidase) | also measured
1 | OC[C@@H]1[C@@H](O)[C@H](O)[C@H](CO)N1C(c1ccccc1)c1ccccc1 [Compound 1] | 0% | Weak anti-HIV1 act. | glycosidase inhibitors | inhibition of maltase (Maltase; at 10^-3 M (footnote 1)): 40%; inhibition of lactose activity (β-Glycosidase; at 10^-4 M, pH 5 (footnote 1)): 58%; inhibited the growth of HIV-1 (HIV-1): inhibited the growth of HIV-1 at high concentrations
2 | OC[C@@H]1N[C@H](CO)[C@@H](O)[C@@H]1O [Compound 2, 2,5-Anhydro-2,5-imino-D-glucitol] | 0% | No anti-HIV1 act. | glycosidase inhibitors | inhibition of lactose activity (β-Glycosidase; at 10^-3 M, pH 5 (footnote 2)): 44%
3 | OC[C@@H]1[C@@H](O)[C@H](O)[C@@H](CO)N1C(c1ccccc1)c1ccccc1 [Compound 3, N-Benzhydryl-2,5-anhydro-2,5-imino-D-mannitol] | 0% | No anti-HIV1 act. |  | 
4 | OCC1[C@@H](O)[C@H](O)C(CO)N1CCCOc1ccc(F)cc1 (some centres unmarked) [Compound 8] | 0% | No anti-HIV1 act. |  | 
5 | OC[C@@H]1[C@@H](O)[C@H](O)[C@H](CO)N1c1ccc(F)cc1 [Compound 9, N-(4-Fluorophenyl)-2,5-anhydro-2,5-imino-D-glucitol] | 0% | No anti-HIV1 act. |  | 
6 | OC[C@@H]1[C@@H](O)[C@H](O)[C@@H](CO)N1c1ccc(F)cc1 [Compound 10] | 0% | No anti-HIV1 act. |  | 
7 | OC[C@H]1[C@@H](O)[C@H](O)[C@H](CO)N1c1ccc(F)cc1 [Compound 11] | 19% | No anti-HIV1 act. | glycosidase inhibitors | 
8 | OC[C@@H]1[C@@H](O)[C@H](O)[C@H](CO)N1CCCC(c1ccc(F)cc1)c1ccc(F)cc1 [Compound 12, N-[4,4-bis(4-Fluorophenyl)butyl]-2,5-anhydro-2,5-imino-D-glucitol tosylate] | 20% | Weak anti-HIV1 act. | glycosidase inhibitors | inhibited the growth of HIV-1 (HIV-1): inhibited the growth of HIV-1 at high concentrations
9 | CCOC(=O)N1CCC(N2C(CO)[C@@H](O)[C@H](O)C2CO)CC1 (some centres unmarked) [Compound 13] | 0% | No anti-HIV1 act. |  | 
10 | OCCCN1C(CO)[C@@H](O)[C@H](O)C1CO (some centres unmarked) [Compound 15] | 0% |  |  | 
11 | CCCCN1[C@H](CO)[C@@H](O)[C@H](O)[C@@H]1CO [Compound 16] | 0% |  |  | 
12 | OCC1[C@@H](O)[C@H](O)C(CO)N1CCc1ccc(F)cc1 (some centres unmarked) [Compound 17] |  | No anti-HIV1 act. |  | 
13 | COC1CN(CCCOc2ccc(F)cc2)CCC1N1C(CO)[C@@H](O)[C@H](O)[C@H]1CO (some centres unmarked) [Compound 22] | 0% | No anti-HIV1 act. |  | 
14 | N-Stearyl-2,5-anhydro-2,5-imino-D-glucitol [Compound 6] | 1% | Weak anti-HIV1 and HIV2 | glycosidase inhibitors | Inh. of (Sucrase) (Sucrase): 6%; inhibited the growth of HIV-1 (HIV-1): inhibited the growth of HIV-1 at high concentrations; HIV1/HIV2 Act. (HIV2) (HIV2): Weak anti-HIV1 and HIV2
